The text below walks through data of patent publication US20240108740A1, “THERAPEUTIC COMPOSITIONS INCLUDING SPN10 AND USES THEREOF” (Stealth BioTherapeutics Inc., priority 2022, published 2024).

Assay [1] deals with isolated mouse liver mitochondria. Briefly: Example 20: spontaneous and antimycin-induced H2O2 production by isolated mitochondria. As to the method:
Livers will be harvested from mice, homogenized in ice-cold buffer, and centrifuged at 13800×g for 10 min. The pellet will be washed once, re-suspended in 0.3 mL of wash buffer, and placed on ice until use. H2O2 will be measured using luminol chemiluminescence as described previously (Li, et al., Biochim. Biophys. Acta 1428, 1-12 (1999). 0.1 mg mitochondrial protein will be added to 0.5 mL potassium phosphate buffer (100 mM, pH 8.0) in the presence of vehicle, peptide conjugates, aromatic-cationic peptides, or SPN10(s) with or without aromatic-cationic peptides. 25 mM luminol and 0.7 IU horseradish peroxidase will be added, and chemiluminescence will be monitored with a Chronolog Model 560 aggregometer (Havertown, PA) for 20 minutes at 37° C. The amount of H2O2 produced will be quantified as the area under the curve (AUC) over 20 min, and all data will be normalized to AUC produced by mitochondria alone.

A further assay relates to SH-SY5Y cells. Kind of assay: Example 27: apoptosis caused by oxidative stress (Hoechst 33342). It counts as cell-based. The following applies: 0.025 mM t-BHP, 24 hours. The protocol:
SH-SY5Y cells will be grown in 96-well plates and treated with t-BHP (0.025 mM) alone or in the presence of peptide conjugates, aromatic-cationic peptides, or SPN10(s) with or without aromatic-cationic peptides at 37° C. for 24 hours. All treatments will be carried out in quadruplicate. Cells will then be stained with 2 mg/mL Hoechst 33342 for 20 minutes, fixed with 4% paraformaldehyde, and imaged using a Zeiss fluorescent microscope (Axiovert 200M) equipped with the Zeiss Acroplan 20× objective. Nuclear morphology will be evaluated using an excitation wavelength of […] and a longpass filter of 400 nm for emission. All images will be processed and analyzed using MetaMorph software (Universal Imaging Corp., West Chester, PA, U.S.A.). Uniformly stained nuclei will be scored as healthy, viable neurons. Cells with condensed or fragmented nuclei will be scored as apoptotic.

The next assay deals with high-fat fed rats. Briefly: Example 34: insulin resistance in rats fed a high-fat diet. Format: in vivo, rat. As to the method: On the day of testing, food will be removed 10 hours prior to administration of a 2 g/kg glucose solution via oral gavage. Glucose levels will be determined on whole blood samples (Lifescan, Milpitas, CA, U.S.A.). Serum insulin levels will be determined using a rat/mouse ELISA kit (Linco Research, St. Charles, MO, U.S.A.). Fasting data will be used to determine homeostatic model assessment (HOMA)-calculated as fasting insulin (mU/mL)×fasting glucose (mM)/22.5.
To further assess insulin sensitivity, the phosphorylation state of the insulin signaling protein Akt in skeletal muscle will be measured 1) following a 10 hour fast, and 2) 1 hour after receiving an oral glucose load. It is anticipated that in response to glucose ingestion, Akt phosphorylation will increase in skeletal muscle of standard chow-fed controls but will remain essentially unchanged in high-fat fed rats, confirming the presence of insulin resistance at the level of insulin signaling.

Assay [2] concerns New Zealand white rabbits. Briefly: Acute myocardial infarction injury in a rabbit model. Format: in vivo. The following applies: IV infusion, 30-minute ischemia, 3 hours post-reperfusion. As to the method: New Zealand white rabbits will be used in this study. The rabbits will be males and >10 weeks in age. Environmental controls in the animal rooms will be set to maintain temperatures of 61° to 72° F. and relative humidity between 30% and 70%. Room temperature and humidity will be recorded hourly, and monitored daily. There will be approximately 10-15 air exchanges per hour in the animal rooms. Photoperiod will be 12-hr light/12-hr dark (via fluorescent lighting) with exceptions as necessary to accommodate dosing and data collection. Routine daily observations will be performed. Harlan Teklad, Certified Diet (2030C), rabbit diet will be provided approximately 180 grams per day from arrival to the facility. In addition, fresh fruits and vegetables will be given to the rabbit 3 times a week. […]
In all cases, treatments will be started approximately 30 minutes after the onset of a 30-minute ischemic insult (coronary occlusion) and continued for up to 3 hours following reperfusion. In all cases, cardiovascular function will be monitored both prior to and during ischemia, as well as for up to 180 minutes (3 hours) post-reperfusion. The experiments will be terminated 3 hours post-reperfusion (end of study); irreversible myocardial injury (infarct size by histomorphometery) at this time-point will be evaluated, and will be the primary-end-point of the study.

Assay [3] deals with isolated mitochondrial, cultured cells and animal subjects. Kind of assay: Mitochondrial reduction potential. As to conditions: in vitro and in vivo. The source says:
It is anticipated that SPN10(s) (with or without aromatic-cationic peptides) and conjugates will enhance mitochondrial reduction potential in vitro in isolated mitochondrial and in vivo in cultured cells and animal subjects.

The next assay deals with cell stress recovery. The following applies: Mitchell et al., bioRxiv, cited from earlier work.

Residues, ends and D or L forms follow the SMILES beside them.

For `N=C(N)NCCC[C@H](NC(=O)[C@@H](N)Cc1c[nH]c2ccccc12)C(=O)N[C@@H](Cc1c[nH]c2ccccc12)C(=O)N[C@@H](CCCCN)C(N)=O` [SPN10, H-L-Trp-L-Arg-L-Trp-L-Lys-NH2] (H-WRWK-NH2), in assay [1], the “spontaneous production of H2O2” value is given as “dose-dependently reduce the spontaneous production of H2O2”. In addition, the “production of H2O2 induced by antimycin” value in assay [1] (antimycin) was “dose-dependently reduce the production of H2O2 induced by antimycin”. For the same compound, the “apoptosis induced by t-BHP” value in the assay with SH-SY5Y cells is given as “prevent SH-SY5Y cell apoptosis”. Moreover, the “blood glucose and insulin responses to the oral glucose challenge” value with high-fat fed rats (2 g/kg glucose, six weeks high-fat diet) was “normalize blood glucose and insulin responses”. In addition, in the assay with high-fat fed rats (rat, in vivo), the “Akt phosphorylation in skeletal muscle in response to glucose ingestion” value is given as “increase Akt phosphorylation” and the “development of insulin resistance (HOMA)” value is “suppress the development of insulin resistance”. For the same compound, in assay [2], the “infarct size compared to the vehicle control group” value was “decreased infarct size”. In assay [3], the mitochondrial reduction potential result is reported as “enhance”. For the same compound, the “potency in cell stress recovery” value in the assay with cell stress recovery (among SS-31, SS-20, SPN4, SPN10) is recorded as “greatest potency”. In addition, the “performance compared with SS-31 (cell culture assays, structure-activity analysis)” value with cell stress recovery is “consistently outperformed SS-31”.
